Non-standard residues stand in square brackets, D forms with d. Residues, ends and D or L forms follow the SMILES beside them. Sar = CNCC(=O)O
Target: Furin (Homo sapiens, UniProt P09958)
Sequence (P09958 whole entry): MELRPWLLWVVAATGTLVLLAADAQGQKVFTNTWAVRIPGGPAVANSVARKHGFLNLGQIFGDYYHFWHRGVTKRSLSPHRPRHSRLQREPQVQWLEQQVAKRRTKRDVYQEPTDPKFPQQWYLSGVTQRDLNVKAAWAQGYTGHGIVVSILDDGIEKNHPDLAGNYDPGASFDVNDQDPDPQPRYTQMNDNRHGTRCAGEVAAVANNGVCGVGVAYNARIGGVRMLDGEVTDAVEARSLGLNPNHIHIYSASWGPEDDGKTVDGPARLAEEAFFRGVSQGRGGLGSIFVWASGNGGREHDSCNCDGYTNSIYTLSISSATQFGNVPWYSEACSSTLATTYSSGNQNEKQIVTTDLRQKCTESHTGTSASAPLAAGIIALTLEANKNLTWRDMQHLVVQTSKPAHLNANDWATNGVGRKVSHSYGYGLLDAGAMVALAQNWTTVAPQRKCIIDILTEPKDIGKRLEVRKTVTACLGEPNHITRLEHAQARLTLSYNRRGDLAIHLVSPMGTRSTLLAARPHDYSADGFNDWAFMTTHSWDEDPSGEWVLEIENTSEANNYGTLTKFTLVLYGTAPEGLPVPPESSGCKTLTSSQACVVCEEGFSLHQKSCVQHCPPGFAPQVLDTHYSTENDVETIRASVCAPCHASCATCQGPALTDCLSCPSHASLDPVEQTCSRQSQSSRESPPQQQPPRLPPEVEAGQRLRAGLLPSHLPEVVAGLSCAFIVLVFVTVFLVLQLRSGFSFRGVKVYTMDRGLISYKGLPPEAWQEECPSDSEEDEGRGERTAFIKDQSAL

Molecule	Ki [nM]
H-TPRFRRRKKRG-NH2	> 100
H-TPRNRRRKKRG-NH2	> 100
H-TPREAAAKKR-OH	> 100
H-TPQRQRRRKKRG-OH	> 100
C[C@H](NC(=O)[C@H](CCCNC(=N)N)NC(=O)[C@H](CCCNC(=N)N)NC(=O)[C@H](CCC(=O)O)NC(=O)[C@H](CCCNC(=N)N)NC(=O)[C@@H]1CCCN1C(=O)[C@@H](N)[C@@H](C)O)C(=O)N[C@@H](CCCCN)C(=O)N[C@@H](CCCCN)C(=O)N[C@@H](CCCNC(=N)N)C(=O)N(C)CC(=O)O (H-TPRERRAKKR[Sar]-OH)	> 100
H-TPAARRRKKRV-OH	> 100
C[C@H](NC(=O)[C@H](CCCNC(=N)N)NC(=O)[C@H](CCCNC(=N)N)NC(=O)[C@H](CCCNC(=N)N)NC(=O)[C@H](CCC(=O)O)NC(=O)[C@H](CCCNC(=N)N)NC(=O)[C@@H]1CCCN1C(=O)[C@@H](N)[C@@H](C)O)C(=O)N[C@@H](CCCCN)C(=O)N[C@@H](CCCNC(=N)N)C(=O)N(C)CC(=O)O (H-TPRERRRAKR[Sar]-OH)	> 100
H-TPRERRAKKR-OH	> 100
H-TPRFRRRKKRG-OH	> 100
H-GGGTPQRARRRKKRW-OH	67
H-TPRERARKKRG-NH2	> 100
CSCC[C@H](NC(=O)[C@H](CCCN=C(N)N)NC(=O)[C@H](CCCCN)NC(=O)[C@H](CCCCN)NC(=O)[C@H](CCCN=C(N)N)NC(=O)[C@H](CCCN=C(N)N)NC(=O)[C@H](CCCN=C(N)N)NC(=O)[C@H](C)NC(=O)[C@H](CCCN=C(N)N)NC(=O)[C@@H]1CCCN1C(=O)[C@@H](N)[C@@H](C)O)C(N)=O	> 100
C[C@H](NC(=O)[C@H](C)NC(=O)[C@H](CCCNC(=N)N)NC(=O)[C@@H]1CCCN1C(=O)[C@@H](N)[C@@H](C)O)C(=O)N[C@@H](CCCNC(=N)N)C(=O)N[C@@H](CCCNC(=N)N)C(=O)N[C@@H](CCCCN)C(=O)N[C@@H](CCCCN)C(=O)N[C@@H](CCCNC(=N)N)C(=O)N(C)CC(=O)O (H-TPRAARRKKR[Sar]-OH)	> 100
H-TAAERRRKKRV-OH	> 100
H-TPRARRRKKRE-OH	> 100
H-TPRERRRAKR-OH	> 100
H-TPRERRRKAR-OH	> 100
C[C@H](NC(=O)[C@H](C)NC(=O)[C@H](CCCNC(=N)N)NC(=O)[C@H](CCC(=O)O)NC(=O)[C@H](CCCNC(=N)N)NC(=O)[C@@H]1CCCN1C(=O)[C@@H](N)[C@@H](C)O)C(=O)N[C@@H](CCCCN)C(=O)N[C@@H](CCCCN)C(=O)N[C@@H](CCCNC(=N)N)C(=O)N(C)CC(=O)O (H-TPRERAAKKR[Sar]-OH)	> 100
H-TPRARRRKKRS-OH	> 100
C[C@@H](O)[C@H](N)C(=O)N1CCC[C@H]1C(=O)N[C@@H](CCCN=C(N)N)C(=O)N[C@@H](CCC(=O)O)C(=O)N[C@@H](CCCN=C(N)N)C(=O)N[C@@H](CCCN=C(N)N)C(=O)N[C@@H](CCCN=C(N)N)C(=O)N[C@@H](CCCCN)C(=O)N[C@@H](CCCCN)C(=O)N[C@@H](CCCNC(=N)N)C(=O)NCC(N)=O	> 100
H-APRERRRKKRV-OH	> 100
H-TPREARRKKRV-OH	> 100
H-AARERRRKKR-OH	> 100

Molecule	Ki [nM]
H-TPRERRRKKR-OH	> 100
H-TPRARRRKKRH-NH2	> 100
C[C@@H](O)[C@H](N)C(=O)N1CCC[C@H]1C(=O)N[C@@H](CCCNC(=N)N)C(=O)N[C@@H](CCCNC(N)=O)C(=O)N[C@@H](CCCNC(=N)N)C(=O)N[C@@H](CCCNC(=N)N)C(=O)N[C@@H](CCCNC(=N)N)C(=O)N[C@@H](CCCCN)C(=O)N[C@@H](CCCCN)C(=O)N[C@@H](CCCNC(=N)N)C(=O)NCC(N)=O	> 100
CC(C)C[C@H](NC(=O)[C@H](CCCN=C(N)N)NC(=O)[C@H](CCCCN)NC(=O)[C@H](CCCCN)NC(=O)[C@H](CCCN=C(N)N)NC(=O)[C@H](CCCN=C(N)N)NC(=O)[C@H](CCCN=C(N)N)NC(=O)[C@H](C)NC(=O)[C@H](CCCN=C(N)N)NC(=O)[C@@H]1CCCN1C(=O)[C@@H](N)[C@@H](C)O)C(=O)O	> 100
H-TPQRNRRRKKRG-OH	> 100
H-TPRAARRKKR-OH	> 100
C[C@H](NC(=O)[C@H](CCCN=C(N)N)NC(=O)[C@@H]1CCCN1C(=O)[C@@H](N)[C@@H](C)O)C(=O)N[C@@H](CCCN=C(N)N)C(=O)N[C@@H](CCCN=C(N)N)C(=O)N[C@@H](CCCN=C(N)N)C(=O)N[C@@H](CCCCN)C(=O)N[C@@H](CCCCN)C(=O)N[C@@H](CCCN=C(N)N)C(=O)N(C)CC(=O)O	> 100
H-TPAAARRKKRG-OH	> 100
C[C@H](N)C(=O)N[C@@H](C)C(=O)N[C@@H](C)C(=O)N[C@@H](CCC(=O)O)C(=O)N[C@@H](CCCNC(=N)N)C(=O)N[C@@H](CCCNC(=N)N)C(=O)N[C@@H](CCCNC(=N)N)C(=O)N[C@@H](CCCCN)C(=O)N[C@@H](CCCCN)C(=O)N[C@@H](CCCNC(=N)N)C(=O)N(C)CC(=O)O (H-AAAERRRKKR[Sar]-OH)	> 100
H-TPRERRRKKAV-OH	> 100
C[C@H](NC(=O)[C@H](CCCNC(=N)N)NC(=O)[C@H](CCC(N)=O)NC(=O)[C@@H]1CCCN1C(=O)[C@@H](N)[C@@H](C)O)C(=O)N[C@@H](CCCNC(=N)N)C(=O)N[C@@H](CCCNC(=N)N)C(=O)N[C@@H](CCCNC(=N)N)C(=O)N[C@@H](CCCCN)C(=O)N[C@@H](CCCCN)C(=O)N[C@@H](CCCNC(=N)N)C(=O)N[C@@H](CCCCN)C(=O)O	> 100
C[C@H](NC(=O)[C@H](CCCN=C(N)N)NC(=O)[C@H](CCC(N)=O)NC(=O)[C@@H]1CCCN1C(=O)[C@@H](N)[C@@H](C)O)C(=O)N[C@@H](CCCN=C(N)N)C(=O)N[C@@H](CCCN=C(N)N)C(=O)N[C@@H](CCCN=C(N)N)C(=O)N[C@@H](CCCCN)C(=O)N[C@@H](CCCCN)C(=O)N[C@@H](CCCN=C(N)N)C(=O)NCC(=O)O	> 100
C[C@@H](O)[C@H](N)C(=O)N1CCC[C@H]1C(=O)N[C@@H](CCCNC(=N)N)C(=O)NCCC(=O)N[C@@H](CCCNC(=N)N)C(=O)N[C@@H](CCCNC(=N)N)C(=O)N[C@@H](CCCNC(=N)N)C(=O)N[C@@H](CCCCN)C(=O)N[C@@H](CCCCN)C(=O)N[C@@H](CCCNC(=N)N)C(=O)NCC(=O)O	> 100
H-TPRARRRKKRG-NH2	57
H-TPQRARRRKKRM-OH	58
H-TPRERAAKKRG-OH	> 100
C[C@H](NC(=O)[C@H](CCCNC(=N)N)NC(=O)[C@H](CCC(N)=O)NC(=O)[C@@H]1CCCN1C(=O)[C@@H](N)[C@@H](C)O)C(=O)N[C@@H](CCCNC(=N)N)C(=O)N[C@@H](CCCNC(=N)N)C(=O)N[C@@H](CCCNC(=N)N)C(=O)N[C@@H](CCCCN)C(=O)N[C@@H](CCCCN)C(=O)N[C@@H](CCCNC(=N)N)C(=O)N[C@H](CCCCN)C(=O)O	> 100
H-TPRRRRRKKRG-NH2	> 100
H-TPRERARKKRV-OH	> 100
H-GAGAGATPRARRRKKRT-OH	47
H-TPRERAAKKRV-OH	> 100
CSC[C@H](NC(=O)[C@H](CCCNC(=N)N)NC(=O)[C@H](CCC(N)=O)NC(=O)[C@@H]1CCCN1C(=O)[C@@H](N)[C@@H](C)O)C(=O)N[C@@H](CCCNC(=N)N)C(=O)N[C@@H](CCCNC(=N)N)C(=O)N[C@@H](CCCNC(=N)N)C(=O)N[C@@H](CCCCN)C(=O)N[C@@H](CCCCN)C(=O)N[C@@H](CCCNC(=N)N)C(=O)NCC(=O)O	> 100
